From patent US6365634B1, “Naturally occurring compounds and their derivatives as cyclooxygenase 2 and/or 5-lipoxygenase inhibitors” (C-P Technology Limited Partnership, priority 1997, dated 2002)

Test system: human keratinocyte PGE2 production
Experiment: Cell-based COX II assay: PGE2 production by cultured human foreskin keratinocytes (enzyme immunoassay)
Conditions: 5, 1.0, 0.2 and 0.04 uM, 24 hours, high calcium medium
Protocol: The ability of dehydroabietic acid methyl ester to inhibit the enzymatic activities of COX II and 5-LO was tested using primary cultures of human foreskin keratinocytes. Briefly, human keratinocytes were plated in 48-well plates (Nunc) at an initial density of 2.5×10^4 cells per well. The cultures were maintained in medium 154XP (Cascade Biologics) to which human keratinocyte growth supplement (Cascade Biologics) was added. Cultures were plated initially in medium 154XP containing 0.07 mM CaCl2. Upon reaching […] confluency, the media was exchanged with high calcium medium 154XP containing 1.2 mM CaCl2. Previous studies have shown that an increase in extracellular Ca^2+concentration induces the differentiation of cultured keratinocytes with a concomitant increase in the expression of COX II protein and COX II mRNA with no apparent effect on COX I expression (Leong, J., Hughes-Fulford, M., Rakhlin, A., Maclouf, J., and Goldyne, M., (1996), Exp. Cell Res., V224, p79). Twenty-four hours after switching to the high calcium media, duplicate wells were treated with dehydroabietic acid methyl ester serially diluted in ethanol to produce final concentrations of 5, 1.0, 0.2, and 0.04 uM. Companion cultures were treated with an identical dilution series of the Merck COX II-specific inhibitor DFU. Twenty-four hours later, samples were removed from each treated well (as well as vehicle-treated control wells) and the amount of PGE2 (a product of the COX II pathway) was quantified using a PGE2-specific enzyme immunoassay (Cayman Chemical). ), As was done with the previously described biochemical assays (COX I, COX II, 5-LO, and 15-LO), the percent inhibition was calculated based on a comparison between vehicle treated control cultures and cultures treated with dehydroabietic acid methyl ester or DFU (see Fractionation and Bioassay Analysis of Fractions Derived from Extract-8 above).
The ability of 4-cumylphenol to inhibit the enzymatic activity of COX II was tested using primary cultures of human foreskin keratinocytes. These cell studies were performed in an identical manner to the studies described in Example 6. […] Twenty-four hours later, samples were removed from each treated well (as well as vehicle-treated control wells) and the amount of PGE2 (a product of the COX II pathway) was quantified using a PGE2-specific enzyme immunoassay (Cayman Chemical). ), as was done with the previously described COX I, COX II, and 15-LO biochemical assays (see Example 2B). The percent inhibition was calculated based on a comparison between vehicle treated control cultures and cultures treated with 4-cumylphenol or DFU. […]
To evaluate the biological activities of 3-methoxy aniline, sufficient quantities of the compound were synthesized as detailed in Example 1C (above). […]

SMILES	inhibition of PGE2 production by cultured human keratinocytes
CC(C)(c1ccccc1)c1ccc(O)cc1 [4-Cumylphenol, 4-cumylphenol]	inhibited the production of PGE2
COC(=O)[C@]1(C)CCC[C@]2(C)c3ccc(C(C)C)cc3CC[C@@H]12 [Dehydroabietic acid methyl ester, dehydroabietic acid methyl ester]	inhibited the production of PGE2
